Measurements from US11858959B2, “Glycyrrhetinic acid derivatives for use in treating hyperkalemia” (ARDELYX, INC., priority 2019, dated 2024).

Molecular target: HSD2 (Homo sapiens (Human), UniProt P80365)
Assay: HSD2 activity: cortisol level (HTRF) in human descending colon organoid-derived monolayer cultures
Method: Human descending colon epithelial stem cells were cultured as 3D organoids in accordance with Sato et al Gastroenterology. […] Cultures were differentiated using SBM containing ENRA and 30 nM aldosterone on day 3, and cultures were used for assay on day 6 or 7. Compounds were diluted in DMSO and serial dilutions prepared by titrating in DMSO. Compounds were then diluted into DMEM/F12. Transwell plates containing descending colon cultures were washed twice with DMEM/F12 and compound was added to the apical compartment. Cells were incubated with test compound for 30 minutes at 37° C., 5% CO2 to equilibrate across the cell membrane. A second compound plate was prepared in which the serially diluted compounds in DMSO were diluted into DMEM/F12 containing 40 nM cortisol. Following the 30 minute pre-incubation step, the apical media was aspirated and compounds diluted in DMEM/F12 with 40 nM cortisol were added to the apical side of the transwell. The plate was then incubated for four hours at 37° C., 5% CO2. Cortisol levels were measured using a cortisol HTRF assay kit as described by the manufacturer (Cisbio). Concentration-response curves were then plotted and IC50 (and pIC50) values were determined using least squares non-linear regression.
Inhibition of HSD2 activity as measured by the inhibition of the conversion of cortisone to cortisol.

Sequence of HSD2 (P80365 whole entry): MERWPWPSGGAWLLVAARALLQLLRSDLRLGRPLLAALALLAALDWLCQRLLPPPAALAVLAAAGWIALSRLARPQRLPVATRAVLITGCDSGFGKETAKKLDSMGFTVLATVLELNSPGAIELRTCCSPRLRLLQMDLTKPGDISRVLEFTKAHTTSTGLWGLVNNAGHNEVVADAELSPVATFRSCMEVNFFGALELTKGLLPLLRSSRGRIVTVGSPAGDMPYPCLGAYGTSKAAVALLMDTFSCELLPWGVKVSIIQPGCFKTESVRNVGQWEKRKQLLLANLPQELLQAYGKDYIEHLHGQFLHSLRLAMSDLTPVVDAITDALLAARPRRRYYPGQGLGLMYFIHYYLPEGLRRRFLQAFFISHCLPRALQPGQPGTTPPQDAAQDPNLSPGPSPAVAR

Molecule	IC50 [µM]	pIC50 (HSD2 inhibition in human descending colon cultures, 30 min pre-incubation, then 40 nM cortisol for four hours, cortisol HTRF)
C[C@]1(C(=O)O)CC[C@]2(C)CC[C@]3(C)C(=CC(=O)[C@@H]4[C@@]5(C)CC[C@H](O)[C@@](C)(COCC(=O)O)C5CC[C@]43C)[C@@H]2C1 (stereo partly drawn) [(2S,4aS,6aS,6bR,9R,10S,12aS,12bR,14bR)-9-[(carboxymethoxy)methyl]-10-hydroxy-2,4a,6a,6b,9,12a-hexamethyl-13-oxo-1,2,3,4,4a,5,6,6a,6b,7,8,8a,9,10,11,12,12a,12b,13,14b-icosahydropicene-2-carboxylic acid]	> 10	
C[C@]1(C(=O)O)CC[C@]2(C)CC[C@]3(C)C(=CC(=O)[C@@H]4[C@@]5(C)CC[C@H](O)[C@@](C)(N)[C@@H]5CC[C@]43C)[C@@H]2C1 [(2S,4aS,6aS,6bR,8aR,9S,10S,12aS,12bR,14bR)-9-amino-10-hydroxy-2,4a,6a,6b,9,12a-hexamethyl-13-oxo-1,2,3,4,4a,5,6,6a,6b,7,8,8a,9,10,11,12,12a,12b,13,14b-icosahydropicene-2-carboxylic acid]	> 10	
C[C@]1(C(=O)O)CC[C@]2(C)CC[C@]3(C)C(=CC(=O)[C@@H]4[C@@]5(C)CC[C@H](OC(=O)NCCN6CCOCC6)[C@@](C)(C(=O)O)[C@@H]5CC[C@]43C)[C@@H]2C1 [(2S,4aS,6aS,6bR,8aR,9S,10S,12aS,12bR,14bR)-2,4a,6a,6b,9,12a-hexamethyl-10-({[2-(morpholin-4-yl)ethyl]carbamoyl}oxy)-13-oxo-1,2,3,4,4a,5,6,6a,6b,7,8,8a,9,10,11,12,12a,12b,13,14b-icosahydropicene-2,9-dicarboxylic acid]	> 10	
COCC(=O)O[C@H]1CC[C@@]2(C)[C@@H](CC[C@]3(C)[C@@H]2C(=O)C=C2[C@@H]4C[C@@](C)(C(=O)O)CC[C@]4(C)CC[C@]23C)[C@]1(C)C(=O)O [(2S,4aS,6aS,6bR,8aR,9S,10S,12aS,12bR,14bR)-10-[(2-methoxyacetyl)oxy]-2,4a,6a,6b,9,12a-hexamethyl-13-oxo-1,2,3,4,4a,5,6,6a,6b,7,8,8a,9,10,11,12,12a,12b,13,14b-icosahydropicene-2,9-dicarboxylic acid]	> 10	
CCC(=O)O[C@H]1CC[C@]2(C)[C@H]3C(=O)C=C4[C@@H]5C[C@@](C)(C(=O)O)CC[C@]5(C)CC[C@@]4(C)[C@]3(C)CC[C@H]2[C@]1(C)N [(2S,4aS,6aS,6bR,8aR,9S,10S,12aS,12bR,14bR)-9-amino-2,4a,6a,6b,9,12a-hexamethyl-13-oxo-10-(propanoyloxy)-1,2,3,4,4a,5,6,6a,6b,7,8,8a,9,10,11,12,12a,12b,13,14b-icosahydropicene-2-carboxylic acid]	0.398	
CN(C)CC(=O)O[C@H]1CC[C@@]2(C)[C@@H](CC[C@]3(C)[C@@H]2C(=O)C=C2[C@@H]4C[C@@](C)(C(=O)O)CC[C@]4(C)CC[C@]23C)[C@]1(C)C(=O)O [(2S,4aS,6aS,6bR,8aR,9S,10S,12aS,12bR,14bR)-10-{[2-(dimethylamino)acetyl]oxy}-2,4a,6a,6b,9,12a-hexamethyl-13-oxo-1,2,3,4,4a,5,6,6a,6b,7,8,8a,9,10,11,12,12a,12b,13,14b-icosahydropicene-2,9-dicarboxylic acid]	> 10	
C[C@]1(C(=O)O)CC[C@]2(C)CC[C@]3(C)C(=CC(=O)[C@@H]4[C@@]5(C)CC[C@H](OC(=O)CS(C)(=O)=O)[C@@](C)(C(=O)O)[C@@H]5CC[C@]43C)[C@@H]2C1 [(2S,4aS,6aS,6bR,8aR,9S,10S,12aS,12bR,14bR)-10-[(2-methanesulfonylacetyl)oxy]-2,4a,6a,6b,9,12a-hexamethyl-13-oxo-1,2,3,4,4a,5,6,6a,6b,7,8,8a,9,10,11,12,12a,12b,13,14b-icosahydropicene-2,9-dicarboxylic acid]	> 10	
CCC(=O)O[C@H]1CC[C@@]2(C)[C@@H](CC[C@]3(C)[C@@H]2C(=O)C=C2[C@@H]4C[C@@](C)(C(=O)O)CC[C@]4(C)CC[C@]23C)[C@]1(C)NC(=O)OCc1oc(=O)oc1CC [Compound 318-1, (2S,4aS,6aS,6bR,8aR,9S,10S,12aS,12bR,14bR)-9-((((5-ethyl-2-oxo-1,3-dioxol-4-yl)methoxy)carbonyl)amino)-2,4a,6a,6b,9,12a-hexamethyl-13-oxo-10-(propionyloxy)-1,2,3,4,4a,5,6,6a,6b,7,8,8a,9,10,11,12,12a,12b,13,14b-icosahydropicene-2-carboxylic Acid]	0.0355	
2-(3-((1-PEG5K-1H-1,2,3-triazol-4-yl)methoxy)-4-nitrobenzyl) 9-((5-methyl-2-oxo-1,3-dioxol-4-yl)methyl)(2S,4aS,6aS,6bR,8aR,9S,10S,12aS,12bR,14bR)-10-((2,5,8,11-tetraoxatetradecan-14-oyl)oxy)-2,4a,6a,6b,9,12a-hexamethyl-13-oxo-1,2,3,4,4a,5,6,6a,6b,7,8,8a,9,10,11,12,12a,12b,13,14b-icosahydropicene-2,9-dicarboxylate [Compound 605-2]		6.9
COC(=O)N[C@H]1CC[C@@]2(C)[C@@H](CC[C@]3(C)[C@@H]2C(=O)C=C2[C@@H]4C[C@@](C)(C(=O)O)CC[C@]4(C)CC[C@]23C)[C@]1(C)C(=O)O [(2S,4aS,6aS,6bR,8aR,9S,10S,12aS,12bR,14bR)-10-[(methoxycarbonyl)amino]-2,4a,6a,6b,9,12a-hexamethyl-13-oxo-1,2,3,4,4a,5,6,6a,6b,7,8,8a,9,10,11,12,12a,12b,13,14b-icosahydropicene-2,9-dicarboxylic acid]	> 10	
COCO[C@H]1CC[C@@]2(C)[C@@H](CC[C@]3(C)[C@@H]2C(=O)C=C2[C@@H]4C[C@@](C)(C(=O)O)CC[C@]4(C)CC[C@]23C)[C@]1(C)C(=O)OCc1oc(=O)oc1C(C)C [Compound 258-2, (2S,4aS,6aS,6bR,8aR,9S,10S,12aS,12bR,14bR)-9-(((5-Isopropyl-2-oxo-1,3-dioxol-4-yl)methoxy)carbonyl)-10-(methoxymethoxy)-2,4a,6a,6b,9,12a-hexamethyl-13-oxo-1,2,3,4,4a,5,6,6a,6b,7,8,8a,9,10,11,12,12a,12b,13,14b-icosahydropicene-2-carboxylic Acid]	0.126	
